The source of these data is patent US20100203123A1, “METHODS FOR IMPROVING COGNITIVE FUNCTION AND DECREASING HEART RATE” (MARTEK BIOSCIENCES CORPORATION, priority 2009, published 2010).

Type in all cases: in vivo, human
Data set [1] relates to healthy elderly subjects with a mild memory complaint. Kind of data set: ADL (ADCS-ADL PI) and self-assessment of memory (Frequency of Forgetting-10). The following applies: 6 month study. From the text: The secondary efficacy endpoints included: • CANTAB tests of executive function and planning: Spatial Working Memory […] and Stockings of Cambridge (SOC) • CANTAB Verbal Recognition Memory test (VRM) • CANTAB Pattern Recognition test (PRM) • Visual acuity (measured by Snellen Eye chart; corrected vision) • Memory Functioning Questionnaire: Frequency of Forgetting-10 (Self-rating scale) • Activities of Daily Living (ADCS-ADL PI) scale (Self-rating) • Clinical measures of cognitive function and computerized assessments were administered by (CANTAB) certified examiners at each site blinded to the subject's treatment. • Description of CANTAB Battery of tests
(§1) Other secondary measures included self-assessment tests of memory (Frequency of Forgetting-10 scale) (Zelinski, E. M. et al., Aging and Mental Health […]), Alzheimer's Disease Cooperative Study-Activities of Daily Living Prevention Instrument (ADCS-ADL PI scale) (Galasko, D., Alzheimer Dis. Assoc. Disord. 20:S152-69 (200)), Mini-Mental State Examination (MMSE) (Folstein et al., Pyschiatr. Res. 12:189-198 (1975) and the Geriatric Depression Scale (Yesavage, J., et al., J Psychiatr. Res. […]).

For data set [2] the test system is unchanged. Kind of data set: CANTAB Paired Associate Learning (PAL) test, randomized double-blind placebo-controlled 24 week study. The procedure: (§2) The effects of DHA (about 900 mg/day) versus placebo was tested to determine whether cognitive measures of memory, attention, and executive function were improved, utilizing the Cambridge Neuropsychological Test Automated Battery (CANTAB) cognitive battery, in healthy elderly subjects with a mild memory complaint. One objective of the study was to determine the effect of DHA administration versus placebo on improving cognitive functions (i.e., working memory, memory retention, attention, processing speed, and executive function) in healthy elderly with a subjective memory complaint. Another objective of the study included determining the effects of DHA on visual acuity, levels of plasma phospholipids, and evaluating the safety and tolerability of the DHA dose administered.
The study was a randomized, double-blind, placebo-controlled, parallel, multi-center design study to evaluate the effects of an oral dose of DHA on cognitive functions in healthy elderly with a subjective memory complaint. The study consisted of a screening/baseline period, and a 24 week treatment period.
(§3) The DHA group was provided 800 mg soft-gelatin capsules, each containing about 300 mg DHA as a triglyceride from algal oil (DHASCO®-S oil, 40% DHA). In addition to 40% DHA, DHASCO®-S oil was formulated to contain 40-60% saturated, mono- and polyunsaturated fatty acids, 400 ppm ascorbyl palmitate, 2000 ppm mixed tocopherols, 2000 ppm rosemary extract, 3% orange-flavoring, and 1% natural masking agent. Subjects were instructed to take three 800 mg capsules/day, i.e., about 900 mg DHA/day.
Pre-baseline testing with the CANTAB occurred to serve as a training session and to familiarize the subject with the computer system. Morris R, et al., Computer Aided Assessment of Dementia: Comparative Studies of Neuropsychological Deficits in Alzheimer Type Dementia and Parkinson's Disease (1987). Seven (+/−2) days following this pre-baseline testing, baseline measurements were taken, including baseline laboratory measures, vital signs, and the CANTAB cognitive battery. At the baseline session, subjects were stratified based on age (55-69; ≧70) and randomly assigned to receive about 900 mg DHA, or placebo. Capsules, either DHA or placebo, as randomly assigned, was given to each subject at the end of the baseline visit. Subjects were instructed to take 3 capsules everyday for the ensuing 24 weeks and were supplied initially with 3 months' worth of capsules. At the end of 4 weeks, subjects returned to the site for compliance and safety assessments. Subjects returned to the site at 12 weeks for safety and efficacy assessments and were re-supplied with the final 3 months' worth of capsules. Subjects returned to the site at 24 weeks for the “end of study” efficacy and safety assessments. Compliance was assessed by food frequency questionnaires, returned capsule counts, and by plasma DHA levels (taken at 24 weeks). The CANTAB cognitive battery consists of tests of memory, learning, attention, problem-solving, and executive function (i.e., planning and organizational skills). See e.g., Fowler et al., Applied Neuropsychology 2:72-78 (1995); Robbins et al., Dementia 5:266-281 (1994); and De Luca et al., J Clinical and Experimental Neuropsychology 25:242-254 (2003).
A primary efficacy endpoint of the CANTAB test score on the Paired Associate Learning (PAL) test at 24 weeks of treatment was used as the primary efficacy outcome. The primary analysis was adjusted for baseline scores, education, site, and the stratification factor of age. Secondary analyses were based on the model above with the addition of the factor, concomitant statin medication use. The PAL subtest of the CANTAB is a test of visuospatial cued recall memory that detects changes in episodic memory. See e.g., de Jager et al., Psychological Medicine 32:483-491 (2002). […]

For data set [3] the test system is unchanged. In words: Geriatric Depression Scale. The following applies: 6 month study, not different between groups.
Excerpt: During the Screening Period, subjects were selected on the basis of specific inclusion and exclusion criteria, including a screening Logical Memory sub-test of the Wechsler Memory Scale (WMS III). See e.g., Wechsler, D., Administration and Scoring Manual, 3rd ed. San Antonio, Tex.: Harcourt Brace & Company, 1997. In addition to the Logical Memory sub-test, the Mini-Mental State Examination (MMSE), Geriatric Depression scale, and a test of visual acuity and a DHA Food Frequency Questionnaire were administered to all subjects at screening. See e.g., Folstein et al., Pyschiatr. Res. 12:189-198 (1975); Yesavage J., et al., J Psychiatr. Res. […] (1982). Eligible subjects who meet the screening criteria were given a pre-baseline training session with the computerized cognitive battery, CANTAB.
as §1

A short description of data set [4]: Vital signs (heart rate, blood pressure, body weight). As to conditions: about 900 mg/d, 24 weeks. The procedure:
as §2, §3
(§4) Pre-baseline testing with the CANTAB occurred to serve as a training session and to familiarize the subject with the computer system. Morris R, et al., Computer Aided Assessment of Dementia: Comparative Studies of Neuropsychological Deficits in Alzheimer Type Dementia and Parkinson's Disease (1987). Seven (+/−2) days following this pre-baseline testing, baseline measurements were taken, including baseline laboratory measures, vital signs, and the CANTAB cognitive battery. At the baseline session, subjects were stratified based on age (55-69; ≧70) and randomly assigned to receive about 900 mg DHA, or placebo. […] Compliance was assessed by food frequency questionnaires, returned capsule counts, and by plasma DHA levels (taken at 24 weeks). […]

For data set [5], the system named is healthy elderly subjects with a mild memory complaint. In words: Safety and tolerability of the DHA dose. The procedure: as §2
as §4, with “battery.” for “battery. At the baseline session, subjects were stratified based on age (55-69; ≧70) and randomly assigned to receive about 900 mg DHA, or placebo.”

`CC/C=C\C/C=C\C/C=C\C/C=C\C/C=C\C/C=C\CCC(=O)O` [DHA, (all-Z)-4,7,10,13,16,19-docosahexaenoic acid]: in data set [1], the ADL assessment result is recorded as “unaffected by DHA supplementation” and the self-perceptive memory assessment result is listed as “unaffected by DHA supplementation”. Also, in data set [2] (about 900 mg/d DHA, six months, ITT analysis, p<0.03), the “errors made on the PAL 6 pattern stage test, diff. score versus placebo, change from baseline” value was −1.63±0.76. Further, the “PAL primary endpoint, diff. score versus placebo, compliers analysis” value in data set [2] (about 900 mg/d, week 24, 95% CI −3.1, 0.4, p<0.13, not significant) is −1.3±0.89. In addition, the “improvement in PAL test performance compared to age-associated normative data” value in data set [2] (about 900 mg/day, 6 months, placebo 3.6 year) is reported as 7 year. For the same compound, the “reduction in CANTAB PAL 6 pattern errors compared to the decrease with placebo” value in data set [2] (about 900 mg/day, six months) is on record as roughly 2 fold. Moreover, the “mean PAL errors after 6 months of DHA supplementation” value in data set [2] (baseline 13.4±11.5) worked out at 8.8±9.9. Besides, the “normative age corresponding to mean PAL errors after 6 months” value in data set [2] (baseline 72.6 years) is 65.6 years of age. Also, the “Geriatric Depression scale” value in data set [3] is “unchanged”. Besides, in data set [4], the “blood pressure, DHA versus placebo” value is “remained unchanged” and the “body weight, DHA versus placebo” value is “remained unchanged”. Moreover, in data set [4] (placebo −1 BPM, p<0.03), the “heart rate, change from baseline” value is −3.2 BPM. Besides, the “treatment-related SAEs” value in data set [5] (about 900 mg/d, 24 weeks) is given as “no treatment-related SAEs were reported”. The tolerability result in data set [5] (about 900 mg/day algal DHA, six months) is reported as “well tolerated”.
